# Source: patent EP2604600A1, “Isatin derivatives and their use in therapy” (priority 2011, dated 2013)
# Columns and labels:
# Assay in all cases: microbe, parasite or virus in culture
# Type in all cases: cell-based
# [1] = tested on: ATCC 35827 Kanamycin Resistant; settings: Mycobacterium tuberculosis, ATCC35827, 48 h
# [2] = tested on: ATCC 35837 Ethambutol Resistant; settings: Mycobacterium tuberculosis, ATCC35837, 48 h
# [3] = tested on: ATCC 35830 Ethionamide Resistant; settings: Mycobacterium tuberculosis, ATCC35830, 48 h
# [4] = tested on: ATCC 35822 Isoniazid Resistant; settings: Mycobacterium tuberculosis, ATCC35822, 48 h
# [5] = tested on: ATCC 35820 Streptomycin Resistant; settings: Mycobacterium tuberculosis, ATCC35820, 48 h
# [6] = tested on: ATCC 35821 Para-aminosalicylic Resistant; settings: Mycobacterium tuberculosis, ATCC35821, 48 h
SMILES,MIC [1],MIC [2],MIC [3],MIC [4],MIC [5],MIC [6]
O=C1Nc2ccc([N+](=O)[O-])cc2C1=NNC(=O)c1ccncc1 [Compound 3c],312 mg/L,0.156 mg/L,0.5 mg/L,10 mg/L,156 mg/L,156 mg/L
O=C1Nc2ccc(Cl)cc2C1=NNC(=O)c1ccncc1 [Compound 3a],25 mg/L,1.25 mg/L,10 mg/L,10 mg/L,25 mg/L,25 mg/L
O=C(NN=C1C(=O)N(Cc2ccccc2)c2ccccc21)c1ccc([N+](=O)[O-])o1 [Compound 3g],156 mg/L,0.156 mg/L,156 mg/L,156 mg/L,78 mg/L,312 mg/L
O=C1Nc2ccc(OC(F)(F)F)cc2C1=NNC(=O)c1ccc([N+](=O)[O-])o1 [Compound 3e],5 mg/L,2.5 mg/L,0.5 mg/L,5 mg/L,25 mg/L,0.5 mg/L
